Measurements as given in BindingDB's records for PubMed 11082457 (Centre De Recherches De Croissy, 2000).

Experiments:
[1] = target: T1, Amine oxidase [flavin-containing] B (Rattus norvegicus, UniProt P19643)
T1 sequence (P19643 whole entry): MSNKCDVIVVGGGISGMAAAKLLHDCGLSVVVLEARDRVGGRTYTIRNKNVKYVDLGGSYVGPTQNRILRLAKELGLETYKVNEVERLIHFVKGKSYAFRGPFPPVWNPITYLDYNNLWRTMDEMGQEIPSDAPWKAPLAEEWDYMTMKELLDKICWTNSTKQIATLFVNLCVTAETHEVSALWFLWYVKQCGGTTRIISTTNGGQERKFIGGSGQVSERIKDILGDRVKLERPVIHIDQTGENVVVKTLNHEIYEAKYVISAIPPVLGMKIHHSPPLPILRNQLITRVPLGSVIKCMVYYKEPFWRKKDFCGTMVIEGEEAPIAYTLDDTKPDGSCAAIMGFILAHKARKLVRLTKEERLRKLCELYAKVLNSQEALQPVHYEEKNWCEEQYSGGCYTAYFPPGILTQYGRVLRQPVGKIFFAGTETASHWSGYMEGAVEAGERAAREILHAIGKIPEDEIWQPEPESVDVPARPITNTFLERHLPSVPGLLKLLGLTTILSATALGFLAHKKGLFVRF

Nischarin = Nischarin (Rattus norvegicus, UniProt Q4G017)
[2] = target: T2, Amine oxidase [flavin-containing] A (Rattus norvegicus, UniProt P21396)
T2 sequence (P21396 whole entry): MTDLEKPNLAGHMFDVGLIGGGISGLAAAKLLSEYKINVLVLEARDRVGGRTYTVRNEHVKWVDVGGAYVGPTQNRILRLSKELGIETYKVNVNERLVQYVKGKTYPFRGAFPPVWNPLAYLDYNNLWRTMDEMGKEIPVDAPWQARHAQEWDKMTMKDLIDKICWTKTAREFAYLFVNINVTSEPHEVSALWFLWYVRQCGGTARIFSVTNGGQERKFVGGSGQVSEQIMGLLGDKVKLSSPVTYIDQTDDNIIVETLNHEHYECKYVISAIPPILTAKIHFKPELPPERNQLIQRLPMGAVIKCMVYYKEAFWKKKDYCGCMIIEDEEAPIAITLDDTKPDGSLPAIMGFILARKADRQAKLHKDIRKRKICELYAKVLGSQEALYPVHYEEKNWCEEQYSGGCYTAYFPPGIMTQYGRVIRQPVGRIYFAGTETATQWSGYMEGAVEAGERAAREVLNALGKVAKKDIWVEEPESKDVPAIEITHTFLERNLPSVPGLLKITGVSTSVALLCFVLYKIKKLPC

[3] = target: Sodium-dependent noradrenaline transporter (Homo sapiens, UniProt P23975)
[4] = target: T3, Alpha-1B adrenergic receptor (Homo sapiens, UniProt P35368)
T3 sequence (P35368 whole entry): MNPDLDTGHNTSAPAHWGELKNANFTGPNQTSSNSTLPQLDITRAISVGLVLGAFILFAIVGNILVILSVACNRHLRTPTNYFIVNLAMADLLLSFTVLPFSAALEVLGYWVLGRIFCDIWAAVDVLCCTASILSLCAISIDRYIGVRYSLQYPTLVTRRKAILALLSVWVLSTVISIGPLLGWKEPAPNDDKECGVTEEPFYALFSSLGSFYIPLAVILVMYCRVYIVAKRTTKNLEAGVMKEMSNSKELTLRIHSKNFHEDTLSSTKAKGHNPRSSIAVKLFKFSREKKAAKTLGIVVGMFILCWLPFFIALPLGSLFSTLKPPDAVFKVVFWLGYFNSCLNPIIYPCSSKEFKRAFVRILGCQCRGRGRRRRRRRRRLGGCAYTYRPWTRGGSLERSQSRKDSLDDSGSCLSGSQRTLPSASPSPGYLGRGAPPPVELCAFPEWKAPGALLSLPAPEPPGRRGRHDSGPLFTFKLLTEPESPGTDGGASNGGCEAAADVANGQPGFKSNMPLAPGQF

[5] = target: T4, Alpha-1D adrenergic receptor (Homo sapiens, UniProt P25100)
T4 sequence (P25100 whole entry): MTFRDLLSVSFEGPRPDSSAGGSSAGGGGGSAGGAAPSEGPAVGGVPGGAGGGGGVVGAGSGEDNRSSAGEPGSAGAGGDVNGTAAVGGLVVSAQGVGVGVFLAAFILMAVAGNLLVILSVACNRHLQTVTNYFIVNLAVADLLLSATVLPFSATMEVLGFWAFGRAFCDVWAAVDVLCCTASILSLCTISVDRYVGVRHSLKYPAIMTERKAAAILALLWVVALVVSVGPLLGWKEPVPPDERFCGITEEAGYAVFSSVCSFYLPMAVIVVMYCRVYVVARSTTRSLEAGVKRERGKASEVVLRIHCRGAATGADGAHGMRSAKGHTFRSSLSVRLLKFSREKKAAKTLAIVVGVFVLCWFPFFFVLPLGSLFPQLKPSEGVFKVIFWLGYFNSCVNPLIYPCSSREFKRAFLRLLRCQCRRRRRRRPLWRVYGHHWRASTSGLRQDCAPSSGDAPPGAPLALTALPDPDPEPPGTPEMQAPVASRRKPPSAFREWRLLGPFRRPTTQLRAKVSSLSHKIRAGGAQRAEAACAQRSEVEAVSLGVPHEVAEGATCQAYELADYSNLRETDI

Sodium-dependent noradrenaline transporter, sequence (P23975 whole entry): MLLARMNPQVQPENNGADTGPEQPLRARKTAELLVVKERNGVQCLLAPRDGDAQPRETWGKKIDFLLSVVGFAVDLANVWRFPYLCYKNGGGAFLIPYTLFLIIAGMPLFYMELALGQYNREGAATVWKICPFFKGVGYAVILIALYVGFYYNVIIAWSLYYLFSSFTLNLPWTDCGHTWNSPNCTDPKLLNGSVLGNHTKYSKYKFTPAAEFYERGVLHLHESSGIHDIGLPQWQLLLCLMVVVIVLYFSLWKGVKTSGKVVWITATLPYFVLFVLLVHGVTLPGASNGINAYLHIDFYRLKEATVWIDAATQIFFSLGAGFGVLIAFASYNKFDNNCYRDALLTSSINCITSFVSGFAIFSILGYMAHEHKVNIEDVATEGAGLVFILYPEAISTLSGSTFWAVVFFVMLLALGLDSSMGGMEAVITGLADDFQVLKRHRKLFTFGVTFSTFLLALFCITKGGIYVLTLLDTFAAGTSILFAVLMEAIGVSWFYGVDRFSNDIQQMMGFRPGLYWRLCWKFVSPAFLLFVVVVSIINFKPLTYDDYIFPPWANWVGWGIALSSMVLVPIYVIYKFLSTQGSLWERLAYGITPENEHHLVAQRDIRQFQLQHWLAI
Nischarin, sequence (Q4G017 whole entry): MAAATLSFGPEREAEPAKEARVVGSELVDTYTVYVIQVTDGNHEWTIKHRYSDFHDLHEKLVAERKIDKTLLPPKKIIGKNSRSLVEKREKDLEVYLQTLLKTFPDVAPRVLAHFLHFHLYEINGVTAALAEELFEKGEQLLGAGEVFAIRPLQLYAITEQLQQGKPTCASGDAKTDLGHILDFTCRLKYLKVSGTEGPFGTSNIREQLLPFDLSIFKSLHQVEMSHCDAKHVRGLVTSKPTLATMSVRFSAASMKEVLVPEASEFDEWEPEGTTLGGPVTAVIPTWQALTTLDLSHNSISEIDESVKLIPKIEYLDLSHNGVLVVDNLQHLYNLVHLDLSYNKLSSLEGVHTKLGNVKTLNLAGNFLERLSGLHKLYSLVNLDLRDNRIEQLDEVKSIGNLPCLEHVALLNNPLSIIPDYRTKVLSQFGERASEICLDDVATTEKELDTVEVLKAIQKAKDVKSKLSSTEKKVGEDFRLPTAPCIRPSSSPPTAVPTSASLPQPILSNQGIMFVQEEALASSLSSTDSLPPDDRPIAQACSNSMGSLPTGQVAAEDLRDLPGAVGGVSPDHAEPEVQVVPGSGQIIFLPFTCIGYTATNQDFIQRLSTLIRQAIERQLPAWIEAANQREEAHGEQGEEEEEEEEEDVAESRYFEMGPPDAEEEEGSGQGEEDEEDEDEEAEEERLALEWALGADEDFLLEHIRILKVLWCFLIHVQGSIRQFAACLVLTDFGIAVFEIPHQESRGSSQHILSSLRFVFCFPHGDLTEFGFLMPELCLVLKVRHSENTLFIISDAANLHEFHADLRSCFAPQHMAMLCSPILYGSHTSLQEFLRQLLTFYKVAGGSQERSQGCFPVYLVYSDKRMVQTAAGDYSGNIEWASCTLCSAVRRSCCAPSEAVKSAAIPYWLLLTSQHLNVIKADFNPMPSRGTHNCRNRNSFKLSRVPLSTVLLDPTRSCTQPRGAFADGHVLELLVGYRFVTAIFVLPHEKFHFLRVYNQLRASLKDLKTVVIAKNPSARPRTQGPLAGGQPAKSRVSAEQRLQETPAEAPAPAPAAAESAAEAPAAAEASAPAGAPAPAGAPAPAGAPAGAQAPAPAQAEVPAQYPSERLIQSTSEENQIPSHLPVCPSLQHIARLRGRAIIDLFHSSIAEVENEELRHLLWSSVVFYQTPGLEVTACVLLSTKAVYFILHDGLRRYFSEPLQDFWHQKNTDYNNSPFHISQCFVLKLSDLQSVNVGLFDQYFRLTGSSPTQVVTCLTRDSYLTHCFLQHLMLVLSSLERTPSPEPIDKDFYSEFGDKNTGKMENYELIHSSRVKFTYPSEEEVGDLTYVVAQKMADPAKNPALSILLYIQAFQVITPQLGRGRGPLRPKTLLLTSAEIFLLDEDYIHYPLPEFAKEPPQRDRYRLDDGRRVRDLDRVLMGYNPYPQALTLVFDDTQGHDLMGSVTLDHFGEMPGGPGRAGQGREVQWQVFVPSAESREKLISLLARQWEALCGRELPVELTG

Ki [1]: 1 µM | Ki (Nischarin): 1 µM | Ki [2]: 1 µM | Ki [3]: 1 µM | Ki [4]: 0.316 µM | Ki [5]: 0.126 µM
Compound: Clc1cccc(Cl)c1N=C1NCCN1 [2-(2,6-dichloroanilino)-2-imidazoline]
